“Also recorded” adds a separate entry of the source. Where two headings read alike, the source gives them in different places.

The source of these data is patent US8906858B2, “Method for the prophylactic or therapeutic treatment of glucocorticoid-induced osteoporosis” (Fritz-Lipmann-Institut E. V. Leibniz-Institut Fuer …, priority 2010, dated 2014).

In data set [1] the test system is primary wild type osteoblasts. Description: Soluble factors added to osteoblasts during osteogenic induction in presence or absence of Dex. In kind it is cell-based, mouse. To be noted: day 10, with Dex. Here is the method: FIG. 7. Differential gene regulation in GR^dim osteoblasts and bone organs by GCs and involvement of AP-1 in suppression of IL-11 in osteoblast differentiation. (A-E) Primary osteoblasts were grown until confluence and treated as described in FIG. 4A. qRT-PCR-determined mRNA expression levels of GILZ, Per-1, KLF15, Lif (LIF) and II11 (IL-11) after six hours. (F-H) qRT-PCR-determined mRNA expression level of IL-11 in organ cultures of GR mutant fetal hind legs (F), in dN^Runx2Cre osteoblasts (G) and c-jun^null MEFs (H) after six hours treatment. (I) Chromatin immunoprecipitation of MEFs after six hours. […] IgG precipitation served as negative control and amplification of the input as positive control. […] At day 10, ALP activity was determined and at day 20, Alizarin Red staining was performed. (K) Quantification of ALP-positive cells treated as in (J) after 10 days. (L) qRT-PCR-determined Runx2 mRNA expression level in cells treated as in (J) after 10 days.
FIG. 13. Effects of GR regulated soluble factors on osteoblast cell numbers. […] At day 10 cell counts were determined by automatic microscopy. Data are represented as mean+/−SEM. *<0.05.
FIG. 14. Effects of GR regulated soluble factors on osteoblast cell differentiation. Primary wild type osteoblasts were differentiated with or without Dex. At day 10 the specific ALP activity was determined and is depicted as ALP positive cells in percent in the absence or presence of NGF (A), IL-6 (B), EGF (C) and LIF (D). Data are represented as mean+/−SEM. * p<0.05; ** p<0.01.
Primary osteoblasts were isolated from either embryonic (E18.5) or neonatal calvaria by sequential digestions and cultivated as previously described (David et al., 2005). c-Jun-deficient cells were obtained from previously described mice (Schreiber et al., 1999). […] Differentiation of osteoblasts was determined by staining for ALP activity (ALP kit, Sigma or ELF® Phosphatase Detection Kit, ATCC) or by Alizarin Red staining (Sigma) at indicated time points. Apoptosis was detected by In situ Cell Death Detection Kit (Roche), and proliferation with fluorescent immunohistochemistry using mouse anti-Ki-67 (BD Pharmingen™) and Alexa Fluor® 594-labeled donkey anti-mouse IgG (Molecular Probes™). Quantification of the stainings and cell numbers according to DAPI labeling was performed by automated microscopy using Cellomics ArrayScan and software HCS Scan® (Thermo-Fischer). The factors EGF (Calbiochem), NGF2 (Sigma), IL-6 (ImmunoTools), IL-11 (Antigenix America, Inc.) and LIF (Chemicon) were added to the culture after differentiation at concentrations of 0.8, 4 and 20 ng/ml. qRT-PCR was performed as previously described (Tuckermann et al., 2007). Primer information can be provided upon request.

Data set [2] concerns Female 9 week old FVB/N mice. Description: LIF administration to prednisolone treated mice, MicroCT analysis. It counts as in vivo, mouse. Here is the method: FIG. 23. LIF treatment elevates bone density of prednisolone treated mice. Female 9 week old FVB/N mice were treated with control pellets (sham), prednisolone (Pred) releasing pellets (12 mg/kg/day releasing rate) and were treated one day later with PBS and LIF i.p. injections twice a day (0.2 mg/kg/day) until 15 days. Mice were sacrificed on day 16. MicroCT Analysis was performed and representative longitudinal sections shown in (A), Bone Volume/Tissue volume determined (B) and trabecular thickness and trabecular numbers calculated (C, D). n=6, * p<0.05, ** p<0.01, *** p<0.001
After 15 days the bone mineral density was determined by micro computertomography (FIG. 23).
Female 9 week old FVB/N mice were treated with control pellets (sham), prednisolone (Pred) releasing pellets (12 mg/kg/day releasing rate) and were treated one day later with PBS and LIF i.p. injections twice a day (0.2 mg/kg/day) until 15 days. Mice were sacrificed on day 16.

In data set [3] the test system is human cells. The settings on record: cited from earlier work.
Data set [4] concerns bone tissue of mice. In words: Osteoblast proliferation and apoptosis in vivo (BrdU, TUNEL). The settings on record: prednisolone for one day. Also on record: species or system mouse. As for the experimental part: FIG. 10. Proliferation and apoptosis in bones of prednisolone treated GR^Runx2Cre animals. (A, B). GR^flox and GR^Runx2Cre mice were treated with prednisolone for one day pulsed with BrdU for 4 hours and histological sections of long bones stained with anti-BrdU antibody (A) and with a TUNEL kit (B). BM: bone marrow; Scale bar: 20 μm.
Mice were treated with prednisolone (12.5 mg/kg/d) for one day and they got pulsed with 10 μg/g body weight BrdU 4 hours before dissection. Decalcified deparaffined femur sections were stained with the In situ Cell Death Detection Kit (Roche) for apoptosis and rat anti-BrdU (Abcam) following Peroxidase coupled anti-rat IgG for proliferation.

The test system of data set [5] is 10-week-old female mice.
Procedure: Vertebral bodies of 10-week-old female GR^Runx2cre and GR^flox mice treated with placebo (Plac) or prednisolone (Pred; 12.5 mg/kg/day) for two weeks were analyzed by (A) von Kossa staining of undecalcified sections and (B) histomorphometry of BV/TV and TbTh. (C) DPD/Cr levels in urine of mice after prednisolone treatment at indicated times. (D) Histomorphometry of osteoblast number/bone perimeter (NOb/BPm), osteocyte number/bone area (NOy/BAR) and osteoclast number/bone perimeter (NOc/BPm). (E) Fluorescent micrographs of dual calcein labeling and (F) its quantitative analysis of bone formation rate/bone surface (BFR/BS). (G) Number of CFU-OBs within the bone marrow/leg (femur and tibia) and (H) qRT-PCR-determined Col1a1 mRNA expression in long bones of mice treated with placebo or prednisolone for three days. (I) Fluorescent micrographs of dual calcein labeling and (J) its quantitative analysis of BFR/BS in tibiae of GR^LysMcre and corresponding GR^flox control mice.
(A) Fluorescent micrographs of dual calcein labeling and (B) its quantitative analysis of BFR/BS in vertebrae of GR^dim and wild type (wt) mice treated as described in FIG. 2. (C) Vertebral bodies were analyzed by von Kossa staining of undecalcified sections. (D) Histomorphometry of BV/TV, TbTh, (E) NOb/BPm, NOy/BAR and NOc/BPm. (F) Number of CFU-OBs within the bone marrow/leg and (G) qRT-PCR-determined Col1a1 mRNA expression in long bones of mice treated with placebo or prednisolone for three days. (H) DPD/Cr levels in urine of mice after prednisolone treatment at indicated times.
All animal experiments were performed in accordance with accepted standards of animal welfare and with permission of the responsible authorities of Baden-Württemberg and Thüringen. […] To induce osteoporosis, prednisolone (or a placebo control) was applied for 14 days by subcutaneous implantation of slow-release pellets resulting in a calculated dose of 12.5 mg/kg/d (15 mg; 60-day release; Innovative Research of America, Inc.) in 10-week-old female mice.
Parameters of static and dynamic histomorphometry were quantified on toluidine blue-stained undecalcified proximal tibia and lumbar vertebral sections as described previously (Amling et al., 1999) using the Osteo-histomorphometry system (Osteometrics, Atlanta, Ga., USA) (Parfitt et al., 1987). Osteocytes were assessed at the cortical bone by OsteoMeasure™ software. To assess dynamic histomorphometric indices, mice were given two injections of calcein, nine and two days before dissection. Fluorochrome measurements for the determination of the bone formation rate were performed on two nonconsecutive 12-μm-thick sections for each animal. Statistical differences between the groups (n=5-6) were assessed by the Student's t-test.
In data set [6] the test system is osteoblastogenesis in bone marrow / long bones of mice. Description: CFU-OBs and Col1a1 mRNA in long bones after three days of prednisolone. In kind it is in vivo, mouse. To be noted: for Col1a1 expression in long bones / osteoblastogenesis, colony forming units of osteoblasts (CFU-OBs): three days of prednisolone.
Source text: (G) Number of CFU-OBs within the bone marrow/leg (femur and tibia) and (H) qRT-PCR-determined Col1a1 mRNA expression in long bones of mice treated with placebo or prednisolone for three days.
(F) Number of CFU-OBs within the bone marrow/leg and (G) qRT-PCR-determined Col1a1 mRNA expression in long bones of mice treated with placebo or prednisolone for three days.
CFU-OBs per leg were obtained by counting Alizarin Red-positive colonies of 2×10^6 bone marrow cells (excluding erythrocytes) plated per 6-well after 20 days under osteogenic conditions.
Data set [7] has as its system MMP-13. To be noted: monocytic cells.
The subject of data set [8] is IL-11 signaling. The settings on record: primary osteoblasts, 10^−6 M CpdA. As for the experimental part: (§1) FIG. 18. […] B) After 6 h of cultivation, IL-11 mRNA expression levels were measured from total RNA extracts. C) IL-11 protein was measured in the supernatant using ELISA after 36 h of culture (n=3; Beta-actin was used for standardisation). *P<0.05, **P<0.01; 1-way ANOVA followed by Dunnett's multiple comparison test. […] E) Western blot analysis is shown for STAT3 phosphorylation of bones from GR^Runx2Cre mice subjected to organ cultures, treated as in D for 36 h.

The subject of data set [9] is Cxcl10 and IL-6 mRNA expression. The settings on record: primary osteoblasts, 10^−6 M CpdA, 6 h. Here is the method:
as §1

The test system of data set [10] is DBA/1 mice. To be noted: CpdA (300 ug) daily for 8 d. Here is the method:
(§2) FIG. 19. […] A) Cells were fixed and stained for ALP activity after 10 d and for mineralization of the matrix using Alizarin red after 20 d of culture. B) mRNA expression levels of osteoblast marker genes are shown, indicated as arbitrary units of actin expression.
(§3) FIG. 22. Determination of alkaline phosphatase activity (ALP) and corresponding IL-11 levels with ELISA 48 hrs after induction. A) Primary osteoblasts of wild type mice were cultured for 10 days with osteogenic inducers (OI) or 0.5 ng/ml IL-11 compared to untreated cells (ctr). Cells were fixed and stained for alkaline phosphatase activity (ALP). The corresponding IL-11 levels were determined with ELISA 48 hrs after induction.

Data set [11] deals with primary osteoblasts. The settings on record: 10^−6 M CpdA, OI differentiation. Here is the method:
as §2, §3

Data set [12] concerns Mouse embryonic fibroblasts. In words: Functional screening assay, automated fluorescent microscopy of ALP activity and cytokines. It counts as cell-based.
Procedure: Automated fluorescent microscopy for high content screening of factors involved in osteoblast differentiation. (A) In osteogenic differentiated (OI) wild type MEFs ALP activity is shown by a fluorescent product (ELF®, green) and nuclei are indicated by DRAQ5® staining (red).
500 Mouse embryonic fibroblasts are seeded per 384 well (2000 cells into a 96 well) until confluency (approx. 2 days). […] 3.7% Formalin is added (50 μl).
Differentiation of osteoblasts treated either with agents to be tested or with RNAi will be determined by staining for alkaline phosphatase activity (ALP kit; Sigma, Inc. or ELF® Phosphatase Detection Kit, ATCC). The preserved anti-inflammatory activity is monitored by immunhistochemical staining with antibodies against IL-6 and CXCL10. The avoidance to affect IL-11 and LIF expression is additionally determined by immunohistochemistry as well.
After fixation, the wells are stained with the nuclear stain DRAQ5 and a fluorescent substrate (ELF) for alkaline phosphatase activity. This allows monitoring cellular ALP activity by automatic microscopy and evaluation with the respective software (FIG. 17).
Immunohistochemical staining towards the antibodies IL-6, CXCL10, IL-11 and/or LIF follows as a last step. Fluorescent signals of the antibodies will be monitored by automatic microscopy and evaluation with the respective software.
The mark [13] stands for this setting: wild type (GR^flox) mice, prednisolone for two weeks.

For the molecule “LIF: Leukaemia inhibitory factor, secreted polyfunctional cytokine; recombinant protein”, in data set [1], the “rescue of Dex-impaired osteoblast differentiation (ALP positive cells)” value is recorded as “potently antagonized; also recorded: ameliorated the inhibition of osteoblast differentiation” and the “rescue of Dex-reduced osteoblast cell numbers” value is recorded as “not rescuing”. In addition, the trabecular number result in [2] (LIF i.p. 0.2 mg/kg/day, 15 days) is “strong increase”. Besides, the “bone mass (bone volume/tissue volume)” value in [2] (sham treated and prednisolone treated animals, LIF i.p. 0.2 mg/kg/day, 15 days) is listed as “increases bone mass”.
Take “human LIF: human mature LIF polypeptide of 180 amino acid residues”: the “activity on human and mouse cells” value in data set [3] is “equally active on both human and mouse cells”.
For the molecule `C[C@]12C=CC(=O)C=C1CC[C@@H]1[C@@H]2[C@@H](O)C[C@@]2(C)[C@H]1CC[C@]2(O)C(=O)CO` [prednisolone], in data set [2] (prednisolone pellets 12 mg/kg/day, also in LIF treated animals), the trabecular thickness entry was “reduction of trabecular thickness”. Also, in [4], the “TUNEL and BrdU pulse labeling within bone tissue” value is reported as “did not alter”. Also, in data set [5] (GR^LysMCre and wild type mice, prednisolone for two weeks), the bone formation rate result is recorded as “similarly reduced”. Besides, in data set [5] (GR^Runx2Cre mice), the “numbers of osteocytes, osteoblasts and osteoblast surface” value is “unaltered”. For the same molecule, in data set [5] (GR^Runx2Cre mice, prednisolone for two weeks), the “bone mineral density and trabecular thickness” value is listed as “not affected”. Moreover, in data set [5] (GR^Runx2cre mice), the “bone formation, dynamic histomorphometry following dual calcein labeling” value is given as “fully protected”. For the same molecule, in [5] (GR^dim and wild type mice), the bone formation entry is “similarly repressed”; the “bone mass and trabecular thickness of the vertebrae” value is “reduced to a comparable degree”; the “osteoblast and osteocyte numbers” value is “strong reduction”; the osteoclast numbers result is listed as “not changed”. In addition, in [5] (GR^dim and wild type mice), the “resorption (DPD/Cr)” value is recorded as “slightly decreased”. Further, in data set [5] (GR^flox and GR^Runx2Cre mice), the osteoclast numbers entry is “not affected”. Also, in data set [5] (GR^flox and GR^Runx2Cre mice, urine), the “Resorption, deoxypyridinoline (DPD/Cr) levels” value is listed as “slightly decreased”. The “numbers of osteocytes, osteoblasts and osteoblast surface” value in data set [5] (GR^flox mice) is given as “decreased”. Further, in data set [5] (mouse, in vivo), the “unspecific toxic effects of the prednisolone dose” value is reported as “no unspecific toxic effects”. In addition, the reduction of osteocytes in data set [5] (prednisolone treated mice) is 20-35%. In addition, the “bone formation, dynamic histomorphometry following dual calcein labeling” value in [5] (vertebrae of wild type mice) is on record as “almost complete inhibition”. Also, in data set [5] (setting [13]), the “bone mineral density in vertebral bones” value is “reduced” and the trabecular thickness entry is given as “decreased”. Further, in data set [6] (GR^Runx2Cre mice), the “Col1a1 expression in long bones” value was “remained unchanged” and the “osteoblastogenesis, colony forming units of osteoblasts (CFU-OBs)” value is reported as “not in GR^Runx2Cre mice”. In data set [6] (GR^dim and wild type mice), the Col1a1 expression entry was “similarly reduced in both genotypes” and the “Osteoblastogenesis in vitro (CFU-OBs)” value is reported as “as efficiently suppressed in GR^dim as in wild type mice”. Also, in data set [6] (GR^flox mice), the “Col1a1 expression in long bones” value is on record as “strongly reduced” and the “osteoblastogenesis, colony forming units of osteoblasts (CFU-OBs)” value is given as “strongly impaired”.
As for `CNCC(Cl)c1ccc(OC(C)=O)cc1.Cl` (stereo not drawn) [Compound A], the “AP-1 dependent gene MMP-13” value in [7] is reported as “repressed”. Moreover, the IL-11 signaling entry in data set [8] is listed as “not IL-11 signaling”. For the same molecule, the proinflammatory gene expression result in [9] is reported as “inhibits proinflammatory gene expression”. For the same molecule, the “osteoblast markers in vivo” value in data set [10] is “does not affect”. Also, in [11], the “osteoblast differentiation and osteoblast markers in vitro” value is reported as “does not affect”. In addition, the “result in the method for identifying agents” value in data set [12] is “tested as a hit”.
Consider “IL-6: Interleukin 6 added to osteoblast cultures”, for which, in data set [1], the “rescue of Dex-reduced osteoblast cell numbers” value is “neither rescued the reduced cell numbers”.
For “epidermal growth factor: epidermal growth factor, evokes HB-EGF signaling in osteoblasts (NSDSECPLSHDGYCLHDGVCMYIEALDKYACNCVVGYIGERCQYRDLKWWELR; not fully specified; Epidermal growth factor; UniProt P01133 971-1023, looked up)”, in data set [1], the “rescue of Dex-impaired osteoblast differentiation (ALP positive cells)” value is given as “did not prevent the inhibition of differentiation” and the “rescue of Dex-reduced osteoblast cell numbers” value is recorded as “counteracted the reduction in cell number”.
